The record followed here is patent US20180042234A1, “FUNGICIDAL PYRAZOLES” (E I DU PONT DE NEMOURS AND COMPANY, priority 2015, published 2018).

The test system of data set [1] is Puccinia recondita f. sp. tritici. Put plainly: Test A: wheat leaf rust, preventive spray on wheat seedlings, visual disease rating. It counts as in vivo. The text has this:
(§1) General protocol for preparing test suspensions for Tests A-E: the test compounds were first dissolved in acetone in an amount equal to 3% of the final volume and then suspended at the desired concentration (in ppm) in acetone and purified water (50/50 mix by volume) containing 250 ppm of the surfactant Trem® 014 (polyhydric alcohol esters). The resulting test suspensions were then used in Tests A-E. Spraying a 200 ppm test suspension to the point of run-off on the test plants was the equivalent of a rate of 800 g/ha.
The test suspension was sprayed to the point of run-off on wheat seedlings. The following day the seedlings were inoculated with a spore suspension of Puccinia recondita f. sp. tritici (the causal agent of wheat leaf rust) and incubated in a saturated atmosphere at 20° C. for 24 h, and then moved to a growth chamber at 20° C. for 7 days, after which time visual disease ratings were made.
(§2) Results for Tests A-E are given in Table A. In the Table, a rating of 100 indicates 100% disease control and a rating of 0 indicates no disease control (relative to the controls). A dash (-) indicates no test results. All results are for 200 ppm except where followed by an asterisk “*” which indicates a 250 ppm test suspension was used or a double asterisk “**” which indicates a 50 ppm test suspension was used.

The subject of the next data set is Botrytis cinerea. As to the kind of experiment: Test C: tomato Botrytis, preventive spray on tomato seedlings, visual disease rating. It counts as in vivo.
Text: as §1
The test suspension was sprayed to the point of run-off on tomato seedlings. The following day the seedlings were inoculated with a spore suspension of Botrytis cinerea (the causal agent of tomato Botrytis) and incubated in a saturated atmosphere at 20° C. for 48 h, and then moved to a growth chamber at 24° C. for 3 days, after which time visual disease ratings were made.
as §2

For data set [2], the system named is Blumeria graminis f sp. tritici. Put plainly: Test D: wheat powdery mildew, preventive spray on wheat seedlings, visual disease rating. It is filed as in vivo.
Text: as §1
The test suspension was sprayed to the point of run-off on wheat seedlings. The following day the seedlings were inoculated with a spore dust of Blumeria graminis f sp. tritici, (also known as Erysiphe graminis f sp. tritici, the causal agent of wheat powdery mildew) and incubated in a growth chamber at 20° C. for 8 days, after which time visual disease ratings were made.
as §2

Another data set has as its system Septoria tritici. As to the kind of experiment: Test B: wheat leaf blotch, preventive spray on wheat seedlings, visual disease rating. It counts as in vivo.
Text: as §1
The test suspension was sprayed to the point of run-off on wheat seedlings. The following day the seedlings were inoculated with a spore suspension of Septoria tritici (the causal agent of wheat leaf blotch) and incubated in a saturated atmosphere at 24° C. for 48 h, and then moved to a growth chamber at 20° C. for 19 days, after which time visual disease ratings were made.
as §2

A further data set relates to Septoria nodorum. As to the kind of experiment: Test E: Septoria glume blotch, preventive spray on wheat seedlings, visual disease rating. It counts as in vivo.
Text: as §1
The test suspension was sprayed to the point of run-off on wheat seedlings. The following day the seedlings were inoculated with a spore suspension of Septoria nodorum (the causal agent of Septoria glume blotch) and incubated in a saturated atmosphere at 20° C. for 48 h, and then moved to a growth chamber at 20° C. for 9 days, after which time visual disease ratings were made.
as §2

Where [3] appears, read: 200 ppm test suspension, 100 = 100% disease control, 0 = no control.

Structures are written as SMILES. Marks after values point to notes of the source that are not given here.

In the case of `Cc1nn(C)c(Nc2ccc(F)cc2)c1C1CCC(C)(C)CC1` [Compound 14], the “Test A disease control rating” value in data set [1] (250 ppm test suspension (*)) is 67* %. Also, the “Test C disease control rating” value in the data set on Botrytis cinerea (250 ppm test suspension (*)) is recorded as 0* %. Moreover, the “Test D disease control rating” value in data set [2] (250 ppm test suspension (*)) is reported as 27* %. Further, the “Test B disease control rating” value with Septoria tritici (250 ppm test suspension (*)) is reported as 33* %. Moreover, the “Test E disease control rating” value with Septoria nodorum (250 ppm test suspension (*)) is listed as 62* %.
Consider `Cc1nn(C)c(Nc2c(F)cc(Cl)cc2F)c1C1CCCC1` [Compound 52, N-(4-chloro-2,6-difluorophenyl)-4-cyclopenyl-1,3-dimethyl-1H-pyrazol-5-amine], for which, in data set [1] (setting [3]), the “Test A disease control rating” value worked out at 89%. In addition, the “Test C disease control rating” value in the data set with Botrytis cinerea (200 ppm test suspension) came out at 96%. Also, the “Test D disease control rating” value in data set [2] (200 ppm test suspension) is listed as 98%. The “Test B disease control rating” value with Septoria tritici (200 ppm test suspension) was 99%. For the same compound, the “Test E disease control rating” value in the data set on Septoria nodorum (200 ppm test suspension) was 0%.
Take `C=C(C)c1c(C)nn(C)c1Nc1c(F)cc([N+](=O)[O-])cc1F` [Compound 36]: the “Test A disease control rating” value in data set [1] (250 ppm test suspension (*)) is given as 55* %. Moreover, in the data set on Botrytis cinerea (250 ppm test suspension (*)), the “Test C disease control rating” value was 0* %. Besides, the “Test D disease control rating” value in data set [2] (250 ppm test suspension (*)) is given as 27* %. Further, the “Test B disease control rating” value in the data set with Septoria tritici (250 ppm test suspension (*)) is 88* %. Further, the “Test E disease control rating” value in the data set with Septoria nodorum (250 ppm test suspension (*)) was 0* %.
In turn, `Cc1nn(C)c(C(O)c2ccc(F)cc2Cl)c1C1CCCCC1` (stereo not drawn) [Compound 11, α-(2-chloro-4-fluorophenyl)-4-cyclohexyl-1,3-dimethyl-1H-pyrazole-5-methanol] gave a melting point of 171 to 173 °C. For the same compound, in data set [1] (250 ppm test suspension (*)), the “Test A disease control rating” value is on record as 86* %. For the same compound, the “Test C disease control rating” value in the data set on Botrytis cinerea (250 ppm test suspension (*)) was 24* %. For the same compound, the “Test D disease control rating” value in data set [2] (250 ppm test suspension (*)) is 93* %. In addition, the “Test B disease control rating” value with Septoria tritici (250 ppm test suspension (*)) is 100* %.
For `CCC(=O)c1c(C)nn(C)c1Oc1c(F)cccc1F` [Compound 7], the “Test A disease control rating” value in data set [1] (setting [3]) came out at 0%. Also, the “Test C disease control rating” value in the data set on Botrytis cinerea (200 ppm test suspension) is on record as 0%. Further, the “Test D disease control rating” value in data set [2] (200 ppm test suspension) was 0%. Further, in the data set with Septoria tritici (200 ppm test suspension), the “Test B disease control rating” value is given as 62%. Moreover, in the data set with Septoria nodorum (200 ppm test suspension), the “Test E disease control rating” value came out at 0%.
In the case of `Cc1nn(C)c(Nc2ccc(F)cc2Cl)c1C1=CCC(C#N)CC1` (stereo not drawn) [Compound 13], in data set [1] (250 ppm test suspension (*)), the “Test A disease control rating” value is 67* %. Also, the “Test C disease control rating” value in the data set on Botrytis cinerea (250 ppm test suspension (*)) is reported as 79* %. The “Test D disease control rating” value in data set [2] (250 ppm test suspension (*)) is 13* %. For the same compound, the “Test B disease control rating” value in the data set with Septoria tritici (250 ppm test suspension (*)) is reported as 97* %. In addition, the “Test E disease control rating” value in the data set on Septoria nodorum (250 ppm test suspension (*)) was 0* %.
On to `Cc1nn(C)c(Nc2ccc(F)cc2F)c1C1CCC(C)CC1` (stereo not drawn) [Compound 16], for which the “Test A disease control rating” value in data set [1] (250 ppm test suspension (*)) is 53* %. For the same compound, the “Test C disease control rating” value in the data set on Botrytis cinerea (250 ppm test suspension (*)) was 19* %. The “Test D disease control rating” value in data set [2] (250 ppm test suspension (*)) was 97* %. Further, the “Test B disease control rating” value with Septoria tritici (250 ppm test suspension (*)) is recorded as 0* %. Further, the “Test E disease control rating” value in the data set on Septoria nodorum (250 ppm test suspension (*)) is on record as 19* %.
Take `CCCCCCCCc1c(C)nn(C)c1Nc1ccc(F)cc1Cl` [Compound 2]: the “Test A disease control rating” value in data set [1] (setting [3]) came to 0%. The “Test C disease control rating” value with Botrytis cinerea (200 ppm test suspension) worked out at 0%. For the same compound, in data set [2] (200 ppm test suspension), the “Test D disease control rating” value worked out at 0%. The “Test B disease control rating” value with Septoria tritici (200 ppm test suspension) came to 0%. In the data set on Septoria nodorum (200 ppm test suspension), the “Test E disease control rating” value worked out at 0%.
For `CCC(=NOC(C)C)c1c(C)nn(C)c1Oc1c(F)cccc1F` [Compound 48], the “Test A disease control rating” value in data set [1] (setting [3]) is 0%. In addition, the “Test C disease control rating” value in the data set on Botrytis cinerea (200 ppm test suspension) turned out to be 18%. In addition, the “Test D disease control rating” value in data set [2] (200 ppm test suspension) is on record as 0%. For the same compound, in the data set on Septoria tritici (200 ppm test suspension), the “Test B disease control rating” value came to 32%. Moreover, the “Test E disease control rating” value with Septoria nodorum (200 ppm test suspension) came out at 0%.
